Laboratory results reported in patent US7928186B2, “Cell permeable bioactive peptide conjugates” (Phoenix Pharmaceuticals, Inc., priority 2006, dated 2011).
Bridge positions count the residues as written; N and C are the ends. Ends that are not written are not given here. * marks the point of attachment. Acm = CC(=O)NC*

Tests used:
[1] = tested on: dissociate and cultured cortical neurons; assay: Mobilization of intracellular Ca2+ in dissociate cultured cortical neurons (Fura-2 AM fluorescence); format: cell-based, rat (newborn Sprague-Dawley)
Source text: Neurons can be isolated from cerebral cortex according to the protocols for postnatal dissociated nuerons as disclosed for example by Huettner, J. E. and Baughman, R. W., Primary Culture of Identified Neurons From the Visual Cortex of Postnatal Rats, Journal of Neurosciences 6; 3044-3060 (1986); Brewer, G. J., Isolation and Culture of Adult Rat Hippocampal Neurons, Journal of Neuroscience Methods, 71:143-155 (1997); and Brailoiu et al., NAADP Potentiates Neurite Outgrowth, Journal of Biological Chemistry (in press), each hereby incorporated by reference. Newborn Sprague-Dawley rates (about 1 day to about 4 days old) were killed by cervical dislocation. Cerebral cortex was removed and quickly immersed in ice-cold phosphate buffer solution. After removal of meninges, tissue was minced into about I-millimeter blocks, incubated for about 45 minutes at 37° C. in Hanks balanced salt solution without Ca^2+ and Mg^2+ (Invitrogen, 1600 Faraday Avenue, Carlsbad, Calif. 92008) and supplemented with about 200 ug/mL penicillin, 0.1% EDTA and papain 0.15 mg/mL (Sigma-Aldrich, St. Louis, Mo.). In accordance with the procedure disclosed by Brewer, the tissue can be further dissociated by gentle mechanical trituration. After centrifugation at 500×g, cells can be re-suspended in fetal serum free media containing Neurobasal-ATM medium supplemented with […], 100 unites penicillin, 100 ug streptomycin, and B27 supplement all of which can be obtained for example from Invitrogen. The resulting cells can be plated at a low density of about 10^4 on round glass coverslips in twenty four well plates. Neurons were cultured at 37° C. in […] and 5% carbon dioxide for about 3 days to about 5 days. The mitotic inhibitor, cytosine P-arabino furanosidde (about 1 μM) which can be obtained from Sigma-Aldrich can be added to cultured neurons to inhibit glial cell proliferation according to the procedure disclosed by Billingsley, M. L. and Mandel, H. G., Effects of DNA Synthesis Inhibitors on Post-Traumatic Glial Cell Proliferation, Journal of Pharmacology and Experimental Therapeutics, 222: 765-770 (1982).
Measurement of mobilized intracellular calcium ion (Ca^2+) in dissociate cultured neurons in response to peptide fragments of HIV-1 Tat polypeptides can be performed as disclosed by Brailoiu E. et al. Neurons cultured about 24 hours on coverslips as above-described were loaded in HBBS with 5μ Fura-2 AM dye at room temperature (about 20° C.) for about 45 minutes in the dark, then washed three times with Fura-2 AM free buffer and allowed to incubate to allow de-esterification of the dye for about 45 minutes. Under these conditions, compartmentalization of the dye was minimal (about 9.2%±0.2% n=6) as judged from the ratio of fluorescence signals after selective permeabilization of the plasma membrane (10 μM β-escein) and full permeabilization of the cultured cells (60 μg/mL saponin). The coverslips were mounted in a custom designed bath on the stage of a S300 Axiovert […] inverted microscope equipped with a C&L Instruments fluorimeter as described by Brailoiu et al. The Fura-2 fluorescent signal was calibrated by successive addition of 20 μg/mL digitonin, 20 mM EDTA, and 0.5 mM MnCl2.
Table 1. Effect of HIV1-Tat Polypeptides on [Ca^2+] Response in Dissociate and Cultured Cortical Neurons

[2] = tested on: rat medulla oblongata (NTS, RVLM); conditions: cited from earlier work
[3] = tested on: humans; conditions: infusion of normal postprandial concentrations, over 24 h; cited from earlier work

Row | Substance | [Ca^2+] response ([1]; n = 5-10) | also measured
1 | HIV1 41-60 (KALGISYGRKKRRQRRRAHQ; Human immunodeficiency virus type 1) [peptide fragment of the HIV1 30-86 peptide] | 66 ± 13 nM | –
2 | HIV1 30-57 (Cys30-Cys37)(Cys 31-Cys34) (CCFHCQVCFITKALGISYGRKKRRQRRR; disulfide 1-8, 2-5) [HIV1 30-57 (Cys30-Cys37)(Cys31-Cys34), 14] | 197 ± 46 nM | –
3 | HIV1 62-86 (SQTHQASLSKQPTSQPRGDPTGPKE; Human immunodeficiency virus type 1) [peptide fragment of the C-terminal region of the HIV1 30-86 peptide] | No Response | –
4 | Apelin: endogenous ligands at the orphan G-protein coupled receptor, APJ (QRPRLSHKGPMPF; Apelin-13; UniProt Q9ULZ1 65-77, looked up) | – | increase in arterial pressure ([2]; microinjection into either of the NTS and the RVLM): 10-20 mm Hg; decreased phrenic nerve discharge amplitude ([2]; microinjection into the NTS): up to 30%
5 | HIV1 30-57 (Cys30-Cys34)(Cys 31-Cys37) (CCFHCQVCFITKALGISYGRKKRRQRRR; disulfide 1-5, 2-8) [HIV1 30-57 (Cys30-Cys34)(Cys31-Cys37)] | 528 ± 60 nM | –
6 | Peptide YY(3-36) [PYY(3-36)] | – | reduction of food intake [3]: 33%
7 | HIV1 30-86 (Cys30-Cys34)(Cys31-Cys37) (CCFHCQVCFITKALGISYGRKKRRQRRRAHQNSQTHQASLSKQPTSQPRGDPTGPKE; disulfide 1-5, 2-8) | 390 ± 21 nM | –
8 | HIV1 30-57 (Cys30-Cys31)(Cys 34-Cys37) (CCFHCQVCFITKALGISYGRKKRRQRRR; disulfide 1-2, 5-8) [HIV1 30-57 (Cys30-Cys31)(Cys34-Cys37)] | 258 ± 54 nM | –
9 | HIV1 48-84 (GRKKRRQRRRAHQNSQTHQASLSKQPTSQPRGDPTGP; Human immunodeficiency virus type 1) [peptide fragment of the HIV1 30-86 peptide] | 80 ± 28 nM | –
10 | RKKRRQRRR (Human immunodeficiency virus type 1) [HIV1 49-57, Tat transduction domain, transport peptide region alone] | No Response | –
11 | HIV1 30-47 (Cys30-Cys34)(Cys31-Cys37) (CCFHCQVCFITKALGISY; disulfide 1-5, 2-8) [HIV1 30-47 (Cys 30-Cys34)(Cys 31-Cys37), HIV1 Tat fragment which lacks the second transport peptide region] | – | [Ca^2+] response ([1]; n = 5-10 in a column of its own, listed as 30-47 (Cys 30-Cys34)(Cys 31-Cys37)): No Response; [Ca^2+] response ([1]; n = 5-10 in a column of its own, listed as HIV1 30-47 (Cys30-Cys34)(Cys31-Cys37)): cannot mobilize intracellular calcium ion
12 | HIV1 58-86 (AHQNSQTHQASLSKQPTSQPRGDPTGPKE; Human immunodeficiency virus type 1) [peptide fragment of the C-terminal region of the HIV1 30-86 peptide] | 54 ± 28 nM | –
13 | HIV1 61-80 (NSQTHQASLSKQPTSQPRGD; Human immunodeficiency virus type 1) [peptide fragment of the C-terminal region of the HIV1 30-86 peptide] | 56 ± 20 nM | –
14 | HIV1 30-57 (Cys31-Cys37)(Cys 31-ACM)(Cys34-ACM) (C(Acm)CFHC(Acm)QVCFITKALGISYGRKKRRQRRR; disulfide 2-8) [HIV1 30-48 (Cys 30 ACM)(Cys 31-Cys 37 disulfide)(Cys 34 ACM) with transport region HIV1 49-57] | 197 ± 35 nM | –
15 | HIV1 32-62 (Cys34-Cys37): HIV1 Tat polypeptide fragment 32-62 with Cys34-Cys37 disulfide (FHCQVCFITKALGISYGRKKRRQRRRAHQNS; disulfide 3-6) | 752 ± 59 nM | –
